Data as given in patent US20230133958A1, “COMPOUNDS USEFUL IN MODULATING EGFR AND PI3K” (Mekanistic Therapeutics LLC, priority 2021, published 2023).

Tests used:
[1] = test system: OVCAR-3; assay: NCI COMPARE panel (SRB growth inhibition), OVCAR-3; format: cell-based; settings: Homo sapiens; Ovarian Cancer, OVCAR-3, 48 h
Procedure: (§1) The human tumor cell lines of the cancer screening panel are grown in RPMI 1640 medium containing 5% fetal bovine serum and 2 mM L-glutamine. For a typical screening experiment, cells are inoculated into 96 well microtiter plates in 100 µL at plating densities ranging from 5,000 to 40,000 cells/well depending on the doubling time of individual cell lines. After cell inoculation, the microtiter plates are incubated at 37° C., 5% CO2, 95% air and 100% relative humidity for 24 h prior to addition of experimental drugs.
(§2) After 24 h, two plates of each cell line are fixed in situ with TCA, to represent a measurement of the cell population for each cell line at the time of drug addition (Tz). Experimental drugs are solubilized in dimethyl sulfoxide at 400-fold the desired final maximum test concentration and stored frozen prior to use. […]
(§3) Following drug addition, the plates are incubated for an additional 48 h at 37° C., 5 % CO2, 95% air, and 100% relative humidity. […] Bound stain is subsequently solubilized with 10 mM trizma base, and the absorbance is read on an automated plate reader at a wavelength of 515 nm. […] Using the seven absorbance measurements [time zero, (Tz), control growth, (C), and test growth in the presence of drug at the five concentration levels (Ti)], the percentage growth is calculated at each of the drug concentrations levels. Percentage growth inhibition is calculated as: […]

[2] = test system: HL-60(TB); assay: NCI COMPARE panel (SRB growth inhibition), HL-60(TB); format: cell-based; settings: Homo sapiens, Leukemia, 48 h
Procedure: as §1, §2, §3

[3] = test system: RPMI-8226; assay: NCI COMPARE panel (SRB growth inhibition), RPMI-8226; format: cell-based; settings: Homo sapiens; Leukemia, RPMI-8226, 48 h
Procedure: as §1, §2, §3

[4] = molecular target: DNA-PK (Homo sapiens, UniProt P78527); assay: Z'-LYTE / Adapta biochemical kinase assay, DNA-PK; settings: for inhibition at 0.1 µM: concentration of 100 nM/liter, read-out: Percent Inhibition of target enzymes, DNA-PK
From the text: The Z′-LYTE® biochemical assay employs a fluorescence-based, coupled-enzyme format and is based on the differential sensitivity of phosphorylated and non-phosphorylated peptides to proteolytic cleavage. The peptide substrate is labeled with two fluorophores—one at each end—that make up a FRET pair. In the primary reaction, the kinase transfers the gamma-phosphate of ATP to a single tyrosine, serine or threonine residue in a synthetic FRET-peptide. In the secondary reaction, a site-specific protease recognizes and cleaves non-phosphorylated FRET-peptides. Phosphorylation of FRET-peptides suppresses cleavage by the Development Reagent. Cleavage disrupts FRET between the donor (i.e., coumarin) and acceptor (i.e., fluorescein) fluorophores on the FRET-peptide, whereas uncleaved, phosphorylated FRET-peptides maintain FRET. A ratiometric method, which calculates the ratio (the Emission Ratio) of donor emission to acceptor emission after excitation of the donor fluorophore at 400 nm, is used to quantitate reaction progress.
A significant benefit of this ratiometric method for quantitating reaction progress is the elimination of well-to-well variations in FRET-peptide concentration and signal intensities. As a result, the assay yields very high Z′-factor values (>0.7) at a low percent phosphorylation.
Both cleaved and uncleaved FRET-peptides contribute to the fluorescence signals and therefore to the Emission Ratio. The extent of phosphorylation of the FRET-peptide can be calculated from the Emission Ratio. The Emission Ratio will remain low if the FRET-peptide is phosphorylated (i.e., no kinase inhibition) and will be high if the FRET-peptide is non-phosphorylated (i.e., kinase inhibition).
Enzyme: The ADAPTA universal kinase assay is a homogenous, fluorescent based immunoassay for the detection of ADP. In contrast to ATP depletion assays, the ADAPTA assay is extremely sensitive to ADP formation such that a majority of the signal change occurs in the first 10-20% conversion of ATP to ADP. This makes the ADAPTA universal kinase assay ideally suited for use with low activity kinases.
The principle of the ADAPTA universal kinase assay is outlined below. The assay itself can be divided into two phases: a kinase reaction phase, and an ADP detection phase. In the kinase reaction phase, all components required for the kinase reaction are added to the well, and the reaction is allowed to incubate for 60 minutes. After the reaction, a detection solution consisting of a europium labeled anti-ADP antibody, an Alexa Fluor® 647 labeled ADP tracer, and EDTA (to stop the kinase reaction) is added to the assay well. ADP formed by the kinase reaction (in the absence of an inhibitor) will displace the Alexa Fluor® 647 labeled ADP tracer from the antibody, resulting in a decrease in the TR-FRET signal. In the presence of an inhibitor, the amount of ADP formed by the kinase reaction is reduced, and the resulting intact antibody-tracer interaction results in a high TR-FRET signal.
Test Compounds: The Test Compounds are screened in 1% DMSO (final) in the well. For 10 point titrations, 3-fold serial dilutions are conducted from the starting concentration of the customer’s choosing.
Peptide/Kinase Mixtures: All Peptide/Kinase Mixtures are diluted to a 2X working concentration in the appropriate Kinase Buffer.
ATP Solution: All ATP Solutions are diluted to a 4X working concentration in Kinase Buffer (50 mM HEPES pH 7.5, 0.01% BRIJ-35, 10 mM MgCl2,1 mM EGTA). ATP Km apparent is previously determined using a Z′-LYTE® assay.
Development Reagent Solution: The Development Reagent is diluted in Development Buffer.
Assay Protocol: Bar-coded Corning, low volume NBS, black 384-wellplate (Corning Cat. #4514) 1. 2.5 µL - 4X Test Compound or 100 nL 100X plus 2.4 µL kinase buffer. 2. 5 µL - 2X Peptide/Kinase Mixture. 3. 2.5 µL - 4X ATP Solution. 4. 30-second plate shake. 5. 60-minute Kinase Reaction incubation at room temperature. 6. 5 µL - Development Reagent Solution. 7. […]

| Structure (SMILES) | GI50 [1] | GI50 [2] | GI50 [3] | IC50 ([4]; DNA-PK) | inhibition at 0.1 µM [4] |
| --- | --- | --- | --- | --- | --- |
| CS(=O)(=O)Nc1cc(-c2ccc3ncnc(Nc4cccc(Cl)c4F)c3c2)cnc1Cl [Compound 6, N-[2-chloro-5-[4-(3-chloro-2-fluoro-anilino)quinazolin-6-yl]-3-pyridyl] methanesulfonamide] | 0.075 to 0.125 µM | 0.075 to 0.125 µM | 0.125 to 0.25 µM | ≤ 0.002 µM | > 90% |
| CS(=O)(=O)Nc1cc(-c2ccc3ncc(C#N)c(Nc4cccc(Cl)c4F)c3c2)cnc1Cl [Compound 10, N-[2-chloro-5-[4-(3-chloro-2-fluoro-anilino)-3-cyano-6-quinolyl]-3-pyridyl]methanesulfonamide] | > 0.25 µM | ≤ 0.075 µM | ≤ 0.075 µM | – | > 90% |
